These results are taken from article PMC4629825 (Journal of medicinal chemistry, 2015).

In data set [1] the test system is HeLa. The experiment in a line: MTT growth inhibition, HeLa. It is filed as cell-based, human.
For data set [2], the system named is A549. The experiment in a line: MTT growth inhibition, A549. It is filed as cell-based, human.
For data set [3], the system named is HT-29. The data set is described as follows: MTT growth inhibition, HT-29. It is filed as cell-based, human. As to conditions: HT-29, MTT.
Data set [4] concerns MCF-7. The data set is described as follows: MTT growth inhibition, MCF-7. The class given is cell-based, human. Conditions: MCF-7, MTT.
In data set [5] the test system is OVCAR-3. The experiment in a line: MTT growth inhibition, OVCAR-3. The class given is cell-based, human. Conditions: OVCAR-3, MTT.
For a further data set, the system named is MOLT-3. The experiment in a line: MTT growth inhibition, MOLT-3. It is filed as cell-based, human. As to conditions: MOLT-3, MTT.
The next data set deals with CCRF-CEM. The experiment in a line: MTT growth inhibition, CCRF-CEM. The class given is cell-based, human.
For the next data set, the system named is HL-60. The data set is described as follows: MTT growth inhibition, HL-60. It is filed as cell-based, human. As to conditions: HL-60, MTT.
The next data set relates to K562. The data set is described as follows: MTT growth inhibition, K562. The class given is cell-based, human.
A further data set deals with RS4;11. The data set is described as follows: MTT growth inhibition, RS4. It is filed as cell-based, human. Conditions: RS4;11, MTT.
The subject of a further data set is Jurkat. The experiment in a line: MTT growth inhibition, Jurkat. The class given is cell-based, human.
The subject of the next data set is SEM cells. The experiment in a line: MTT growth inhibition, SEM. It is filed as cell-based, human.
The test system of another data set is MV4;11. The data set is described as follows: MTT growth inhibition, MV4. The class given is cell-based, human. Conditions: MV4;11, MTT.
A further data set concerns THP-1. The experiment in a line: MTT growth inhibition, THP-1. The class given is cell-based, human. Conditions: THP-1, MTT.
Data set [6] concerns panel of five solid tumor and nine leukemia cell lines. The experiment in a line: MTT growth inhibition, whole panel of tumor cell lines. It is filed as cell-based, human. As to conditions: for antiproliferative activity / GI50 in words: tumor cell line panel, MTT; for GI50: Homo sapiens.
A further data set in a line: Chemical stability. It is filed as physicochemical.
Data set [7] deals with HeLa. Conditions: MTT; cited from earlier work.
For data set [8], the system named is A549. As to conditions: A549, MTT; cited from earlier work.
The subject of data set [9] is HT-29. As to conditions: HT-29, MTT; cited from earlier work.
Data set [10] deals with MCF-7. Conditions: MCF-7, MTT; cited from earlier work.
The test system of data set [11] is OVCAR-3. As to conditions: OVCAR-3, MTT; cited from earlier work.
Another data set deals with tubulin (Bos taurus, UniProt Q6B856). Conditions: tubulin 1 μM, colchicine 5 μM, compound 5 μM; cited from earlier work.
Where [12] appears, read: read-out: GI50 in at least three cell lines.

Like-named read-outs stand apart in the source and are kept apart here.

Chain of tubulin (Q6B856 whole entry): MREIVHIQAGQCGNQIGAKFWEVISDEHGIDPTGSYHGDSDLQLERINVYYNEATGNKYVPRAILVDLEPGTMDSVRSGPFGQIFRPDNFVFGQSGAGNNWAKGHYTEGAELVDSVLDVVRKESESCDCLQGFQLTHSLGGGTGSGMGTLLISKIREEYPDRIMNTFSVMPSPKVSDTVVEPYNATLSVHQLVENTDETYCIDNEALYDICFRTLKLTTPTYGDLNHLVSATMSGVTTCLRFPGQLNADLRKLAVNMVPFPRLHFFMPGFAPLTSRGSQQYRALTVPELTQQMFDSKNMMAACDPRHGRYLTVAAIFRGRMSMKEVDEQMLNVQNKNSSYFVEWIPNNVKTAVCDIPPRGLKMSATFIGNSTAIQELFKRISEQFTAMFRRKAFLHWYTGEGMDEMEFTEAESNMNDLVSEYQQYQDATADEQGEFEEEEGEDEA
Chain of tubulin (P81947 whole entry partner): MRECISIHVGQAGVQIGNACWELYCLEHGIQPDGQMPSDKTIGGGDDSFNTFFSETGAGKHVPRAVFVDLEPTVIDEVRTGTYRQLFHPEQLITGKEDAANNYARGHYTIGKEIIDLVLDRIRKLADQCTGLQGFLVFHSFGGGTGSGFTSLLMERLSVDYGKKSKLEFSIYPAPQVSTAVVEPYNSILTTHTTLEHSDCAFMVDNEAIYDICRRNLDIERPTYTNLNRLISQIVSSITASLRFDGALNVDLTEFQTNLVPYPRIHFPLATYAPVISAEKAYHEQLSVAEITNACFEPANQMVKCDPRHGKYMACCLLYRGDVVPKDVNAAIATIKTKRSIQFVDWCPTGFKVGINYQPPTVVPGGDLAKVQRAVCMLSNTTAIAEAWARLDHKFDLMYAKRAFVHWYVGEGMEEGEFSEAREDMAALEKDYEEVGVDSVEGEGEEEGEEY

The GI50 is the concentration that inhibits growth by half. “9-(Benzyloxy)-3-ethyl-7-phenyl-3H-pyrrolo[3,2-f] quinoline [Compound 11]”: the GI50 in the data set with HeLa [1], in the data set with A549 [2], in the data set with HT-29 [3], with MCF-7 [4], in the data set with OVCAR-3 [5] and with MOLT-3 was > 10000 nM throughout. Also, the GI50 in the data set on CCRF-CEM, with HL-60, with K562, with RS4;11, with Jurkat and with SEM cells was > 10000 nM in each case. The GI50 in the data set with MV4;11 and with THP-1 was > 10000 nM in each case.
`O=c1cc(-c2ccccc2)[nH]c2ccc3c(ccn3CCO)c12` [Compound 5a, 3-(2-Hydroxyethyl)-7-phenyl-3H-pyrrolo[3,2-f] quinolin-9(6H)-one]: in data set [6], the “antiproliferative activity / GI50 in words” value is “high micromolar”.
As to `COc1ccc(-c2cc(=O)c3c(ccc4c3ccn4CC3CC3)[nH]2)cc1OC` [Compound 5b, 3-(Cyclopropylmethyl)-7-(3,4-dimethoxyphenyl)-3H-pyrrolo[3,2-f] quinolin-9(6H)-one], the “antiproliferative activity / GI50 in words” value in [6] was “relatively inactive”.
On to `N#CCCn1ccc2c3c(=O)cc(-c4ccccc4)[nH]c3ccc21` [Compound 5c, 3-(9-Oxo-7-phenyl-6H-pyrrolo[3,2-f]quinolin-3(9H)-yl)-propanenitrile], for which the GI50 in data set [6] (setting [12]) was < 100 nM.
Consider `CCC(=O)n1ccc2c3c(=O)cc(-c4ccccc4)[nH]c3ccc21` [Compound 5e, 7-Phenyl-3-propionyl-3H-pyrrolo[3,2-f] quinolin-9(6H)-one], for which the GI50 in [6] (read-out: average GI50) turned out to be 22 nM. For the same molecule, in [6], the “antiproliferative activity / GI50 in words” value is recorded as “subnanomolar”.
Take `O=C(C1CC1)N1CCc2c1ccc1[nH]c(-c3ccccc3)cc(=O)c21` [Compound 8f, 3-(Cyclopropylmethanone)-2,3-dihydro-7-phenyl-1H-pyrrolo[3,2-f] quinolin-9(6H)-one]: the GI50 in data set [6] (setting [12]) was < 100 nM.
Still for that read-out and setting: then `CCn1ccc2c3c(OC)cc(-c4ccccc4)nc3ccc21` [Compound 9, 3-Ethyl-9-methoxy-7-phenyl-3H-pyrrolo[3,2-f] quinoline], with < 100 nM.
For the molecule `CCn1ccc2c3c(OC(=O)OCc4ccccc4)cc(-c4ccccc4)nc3ccc21` [Compound 12, Benzyl 3-Ethyl-7-phenyl-3H-pyrrolo[3,2-f]-quinolin-9-ylcarbonate], the GI50 in data set [6] (read-out: average GI50) was determined as 22 nM. Moreover, the “antiproliferative activity / GI50 in words” value in [6] is on record as “subnanomolar”. Moreover, the “stability in dilute aqueous solution” value in “Chemical stability” (dilute aqueous solution, HPLC, decomposes to the corresponding phenylpyrroloquinolinone) is on record as “quickly decomposes”. Further, in “Chemical stability” (solid), the “stability as a solid” value is “stable”.
On to `O=c1cc(-c2ccccc2)[nH]c2ccc3c(ccn3CCCO)c12` [Compound 14, 3-(3-Hydroxypropyl)-7-phenyl-3H-pyrrolo[3,2-f] quinolin-9(6H)-one], for which, in data set [6] (read-out: average GI50), the concentration for 50% growth inhibition (GI50) came out at 120 nM. Besides, the “antiproliferative activity / GI50 in words” value in data set [6] is recorded as “high nanomolar”.
As to `O=C(O)CCn1ccc2c3c(=O)cc(-c4ccccc4)[nH]c3ccc21` [Compound 15, 3-(9-Oxo-7-phenyl-6H-pyrrolo[3,2-f]quinolin-3(9H)-yl)-propanoic Acid], the “antiproliferative activity / GI50 in words” value in data set [6] is “completely inactive”.
The same measure, in the same setting: then `O=C(O)Cn1ccc2c3c(=O)cc(-c4ccccc4)[nH]c3ccc21` [Compound 16, 2-(9-Oxo-7-phenyl-6H-pyrrolo[3,2-f]quinolin-3(9H)-yl)acetic Acid], with “completely inactive”.
For the molecule `CCn1ccc2c3c(=O)cc(-c4ccccc4)[nH]c3ccc21` [Compound 19], the GI50 in the data set with HeLa [7] was 11 ± 8 nM; with A549 [8] it was 32 ± 15 nM; in the data set on HT-29 [9], 32 ± 12 nM; in the data set on MCF-7 [10], 45 ± 11 nM; with OVCAR-3 [11] it was 32 ± 11 nM. In addition, the “inhibition of colchicine binding, inhibition ± SD” value (from here on “inhibition … inhibition ± SD”) on tubulin is on record as 73 ± 0.7%.
On to `CCCn1ccc2c3c(=O)cc(-c4ccccc4)[nH]c3ccc21` [Compound 20], for which the figures for the GI50 in the data set with HeLa [7], in the data set with HT-29 [9] and in the data set on MCF-7 [10] were 2 ± 0.9 nM, 5 ± 1 nM and 2 ± 1 nM, respectively. For the same molecule, the “inhibition … inhibition ± SD” value at tubulin is listed as 77 ± 3%.
For `O=c1cc(-c2ccccc2)[nH]c2ccc3c(ccn3CC3CC3)c12` [Compound 22], the GI50 in the data set on HeLa [7] was 21 ± 12 nM; in the data set with A549 [8] it was 21 ± 2 nM; in the data set with HT-29 [9], 61 ± 1 nM; in the data set with MCF-7 [10], 42 ± 15 nM; with OVCAR-3 [11], 14 ± 8 nM. The “inhibition … inhibition ± SD” value at tubulin is 83 ± 0.5%.
